Results reported in patent US9464058B2 (Hoffmann-La Roche Inc., priority 2012, dated 2016).

Columns and labels:
human CYP11B2 = target: T1, human CYP11B2 (Homo sapiens, UniProt P19099); assay: G-402 cellular enzyme assay, human CYP11B2 (aldosterone release, HTRF); format: cell-based; conditions: G-402 cells expressing human CYP11B2; 1 μM Deoxycorticosterone; 16 h
T1 construct: expressed in transfected cells
T1 sequence (P19099 25-503): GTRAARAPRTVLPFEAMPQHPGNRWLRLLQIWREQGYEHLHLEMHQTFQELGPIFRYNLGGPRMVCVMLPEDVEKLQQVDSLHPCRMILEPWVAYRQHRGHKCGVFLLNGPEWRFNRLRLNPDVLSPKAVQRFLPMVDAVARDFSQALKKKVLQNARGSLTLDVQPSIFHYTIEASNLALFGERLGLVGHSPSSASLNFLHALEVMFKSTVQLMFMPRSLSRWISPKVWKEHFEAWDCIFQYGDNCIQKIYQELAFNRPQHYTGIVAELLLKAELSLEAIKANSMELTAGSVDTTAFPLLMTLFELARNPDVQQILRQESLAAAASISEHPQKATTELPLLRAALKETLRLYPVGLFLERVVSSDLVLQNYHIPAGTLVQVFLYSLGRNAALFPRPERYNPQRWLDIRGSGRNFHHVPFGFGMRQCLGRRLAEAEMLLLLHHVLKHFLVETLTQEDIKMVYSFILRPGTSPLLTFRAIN
Source text: (§1) Herein we identified the use of the G-402 cell line as a host cell to ectopically express (transiently or stably) enzymes of the CYP11 family. Specifically we developed stable G-402 cells expressing ectopically human CYP11B1, human CYP11B2, human CYP11A1, cynomolgus CYP11B1 or cynomolgus CYP11B2 enzyme activity. Importantly, the identified cell line G-402 expresses co-factors (adrenodoxin and adrenodoxin reductase) important for the activity of the CYP11 family, and no relevant enzyme activity of the CYP11 family (in comparison to H295R cells) was detected in these cells. Therefore the G-402 cell line is uniquely suited as a host cell for the ectopic expression of enzymes from the CYP11 family.
(§2) G-402 cells can be obtained from ATCC(CRL-1440) and were originally derived from a renal leiomyoblastoma.
(§3) The expression plasmids contains the ORF for either human/cyno CYP11B1 or CYP11B2 under the control of a suitable promoter (CMV-promoter) and a suitable resistance marker (neomycin). Using standard techniques the expression plasmid is transfected into G-402 cells and these cells are then selected for expressing the given resistance markers. Individual cell-clones are then selected and assessed for displaying the desired enzymatic activity using 11-Deoxycorticosterone (Cyp11B2) or 11-Deoxycortisol (Cyp11B1) as a substrate.
(§4) G-402 cells expressing CYP11 constructs were established as described above and maintained in McCoy's 5a Medium Modified, ATCC Catalog No. 30-2007 containing 10% FCS and 400 μg/ml G418 (Geneticin) at 37° C. under an atmosphere of 5% CO2/95% air. Cellular enzyme assays were performed in DMEM/F12 medium containing 2.5% charcoal treated FCS and appropriate concentration of substrate (0.3-10 uM 11-Deoxycorticosterone, 11-Deoxycortisol or Corticosterone). For assaying enzymatic activity, cells were plated onto 96 well plates and incubated for 16 h. An aliquot of the supernatant is then transferred and analyzed for the concentration of the expected product (Aldosterone for CYP11B2; Cortisol for CYP11B1). The concentrations of these steroids can be determined using HTRF assays from CisBio analyzing either Aldosterone or Cortisol.
(§5) Inhibition of the release of produced steroids can be used as a measure of the respective enzyme inhibition by test compounds added during the cellular enzyme assay. The dose dependent inhibition of enzymatic activity by a compound is calculated by means of plotting added inhibitor concentrations (x-axes) vs. measured steroid/product level (y-axes). The inhibition is then calculated by fitting the following 4-parameter sigmoidal function (Morgan-Mercer-Flodin (MMF) model) to the raw data points using the least squares method:
(§6) [formula] wherein A is the maximum y value, B is the EC50 factor determined using XLFit, C is the minimum y value and D is the slope value.
(§7) EC50 values for compounds claimed herein were tested with the G402-based assay system described. Cyp11B2 enzyme activity was tested in presence of 1 μM Deoxycorticosterone and variable amounts of inhibitors; Cyp11B1 enzyme activity was tested in presence of 1 μM Deoxycortisol and variable amounts of inhibitors.

human CYP11B1 = target: T2, human CYP11B1 (Homo sapiens, UniProt P15538); assay: G-402 cellular enzyme assay, human CYP11B1 (cortisol release, HTRF); format: cell-based; conditions: G-402 cells expressing human CYP11B1; 1 μM Deoxycortisol; 16 h
T2 construct: expressed in transfected cells
T2 sequence (P15538 25-503): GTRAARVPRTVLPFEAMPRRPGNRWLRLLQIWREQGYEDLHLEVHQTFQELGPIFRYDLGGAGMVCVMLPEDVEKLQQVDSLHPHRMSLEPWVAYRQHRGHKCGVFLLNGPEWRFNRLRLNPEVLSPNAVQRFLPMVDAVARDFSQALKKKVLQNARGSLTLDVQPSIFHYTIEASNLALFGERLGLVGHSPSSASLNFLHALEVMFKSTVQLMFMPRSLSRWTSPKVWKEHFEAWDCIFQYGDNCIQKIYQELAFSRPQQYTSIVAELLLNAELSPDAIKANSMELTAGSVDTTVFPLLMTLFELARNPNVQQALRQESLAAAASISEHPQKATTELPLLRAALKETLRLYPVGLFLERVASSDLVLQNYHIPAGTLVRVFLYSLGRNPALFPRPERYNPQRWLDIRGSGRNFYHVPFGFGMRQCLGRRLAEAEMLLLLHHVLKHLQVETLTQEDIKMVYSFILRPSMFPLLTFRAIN
Source text: as §1, §2, §3, §4, §5, §6, §7

SMILES | EC50 (human CYP11B2) | EC50 (human CYP11B1)
CCC(C)n1cncc1C(=O)c1ccc(C#N)cc1 (centres unmarked) [Example 16, 4-(3-sec-Butyl-3H-imidazole-4-carbonyl)-benzonitrile] | 0.0007 µM | 0.001 µM
CCn1cncc1C(=O)c1ccc(N(C)C(=O)OC(C)(C)C)cc1 [Example 88, [4-(3-Ethyl-3H-imidazole-4-carbonyl)-phenyl]-methyl-carbamic acid tert-butyl ester] | 2.2 µM | 1.29 µM
Cn1cncc1C(=O)c1ccc(C#N)cc1F [Example 8, 3-Fluoro-4-(3-methyl-3H-imidazole-4-carbonyl)-benzonitrile] | 0.0986 µM | 2.5 µM
CC(C)n1cncc1C(=O)c1ccc(C#N)cc1F [Example 10, 3-Fluoro-4-(3-isopropyl-3H-imidazole-4-carbonyl)-benzonitrile] | 0.0108 µM | 0.0703 µM
CCC(C)n1cncc1C(=O)c1cccc(C#N)c1 (centres unmarked) [Example 37, 3-(3-sec-Butyl-3H-imidazole-4-carbonyl)-benzonitrile] | 0.0063 µM | 0.0782 µM
CC(C)n1cncc1C(=O)c1ccc(F)c(C#N)c1 [Example 64, 2-Fluoro-5-(3-isopropyl-3H-imidazole-4-carbonyl)-benzonitrile] | 0.323 µM | 0.448 µM
C#Cc1ccc(C(=O)c2cncn2C)cc1 [Example 29, (4-Ethynyl-phenyl)-(3-methyl-3H-imidazol-4-yl)-methanone] | 0.0203 µM | 0.259 µM
O=C(c1ccc(Cl)c(Cl)c1)c1cncn1-c1ccc(Cl)cc1 [Example 91, [3-(4-Chloro-phenyl)-3H-imidazol-4-yl]-(3,4-dichloro-phenyl)-methanone] | 0.0042 µM | 0.439 µM
Cn1cncc1C(=O)c1cccc(Cl)c1 [Example 22, (3-Chloro-phenyl)-(3-methyl-3H-imidazol-4-yl)-methanone] | 0.0326 µM | 0.543 µM
CCSc1ccc(C(=O)c2cncn2CC)cc1 [Example 69, (3-Ethyl-3H-imidazol-4-yl)-(4-ethylsulfanyl-phenyl)-methanone] | 0.0844 µM | 0.329 µM
N#Cc1ccc(-n2cncc2C(=O)c2ccc(Cl)c(F)c2)cc1 [Example 94, 4-[5-(4-Chloro-3-fluoro-benzoyl)-imidazol-1-yl]-benzonitrile] | 0.0144 µM | 0.0846 µM
CC(=O)N(C)c1ccc(C(=O)c2cncn2C(C)C)cc1 [Example 59, N-[4-(3-Isopropyl-3H-imidazole-4-carbonyl)-phenyl]-N-methyl-acetamide] | 0.0513 µM | 5.04 µM
CC(C)n1cncc1C(=O)c1cccc(C#N)c1 [Example 57, 3-(3-Isopropyl-3H-imidazole-4-carbonyl)-benzonitrile] | 0.026 µM | 0.203 µM
O=C(c1ccc(Cl)c(F)c1)c1cncn1C1CC1 [Example 40, (4-Chloro-3-fluoro-phenyl)-(3-cyclopropyl-3H-imidazol-4-yl)-methanone] | 0.0023 µM | 0.0148 µM
CN1C(=O)CCc2cc(C(=O)c3cncn3C)ccc21 [Example 25, 1-Methyl-6-(3-methyl-3H-imidazole-4-carbonyl)-3,4-dihydro-1H-quinolin-2-one] | 0.077 µM | 7.88 µM
C#Cc1ccc(C(=O)c2cncn2C(C)C)cc1 [Example 54, (4-Ethynyl-phenyl)-(3-isopropyl-3H-imidazol-4-yl)-methanone] | 0.0005 µM | 0.0068 µM

Other lines, results leading:

EC50 (human CYP11B2) | EC50 (human CYP11B1) | SMILES
0.0294 µM | 0.744 µM | CCn1cncc1C(=O)c1ccc(N(C)C=O)cc1 [Example 89, N-[4-(3-Ethyl-3H-imidazole-4-carbonyl)-phenyl]-N-methyl-formamide]
0.102 µM | 3.25 µM | CCSc1ccc(C(=O)c2cncn2C)cc1 [Example 51, (4-Ethylsulfanyl-phenyl)-(3-methyl-3H-imidazol-4-yl)-methanone]
0.0037 µM | 0.0317 µM | CCn1cncc1C(=O)c1ccc(F)c(Cl)c1 [Example 33, (3-Chloro-4-fluoro-phenyl)-(3-ethyl-3H-imidazol-4-yl)-methanone]
0.0284 µM | 1.53 µM | CSc1ccc(C(=O)c2cncn2C)cc1 [Example 43, (3-Methyl-3H-imidazol-4-yl)-(4-methylsulfanyl-phenyl)-methanone]
0.0197 µM | 1.12 µM | CCn1cncc1C(=O)c1ccc2c(c1)CCC(=O)N2C [Example 26, 6-(3-Ethyl-3H-imidazole-4-carbonyl)-1-methyl-3,4-dihydro-1H-quinolin-2-one]
0.0023 µM | 0.0287 µM | N#Cc1ccc(C(=O)c2cncn2C2CC2)cc1 [Example 18, 4-(3-Cyclopropyl-3H-imidazole-4-carbonyl)-benzonitrile]
0.118 µM | 3.5 µM | COc1ccc(C(=O)c2cncn2C)cc1 [Example 4, (4-Methoxy-phenyl)-(3-methyl-3H-imidazol-4-yl)-methanone]
0.0052 µM | 0.0101 µM | CC(C)n1cncc1C(=O)c1ccc(Br)cc1 [Example 72, (4-Bromo-phenyl)-(3-isopropyl-3H-imidazol-4-yl)-methanone]
1.62 µM | 3.75 µM | CNc1ccc(C(=O)c2cncn2C)cc1 [Example 86, (4-Methylamino-phenyl)-(3-methyl-3H-imidazol-4-yl)-methanone]
0.0039 µM | 0.0039 µM | CC(C)n1cncc1C(=O)c1ccc(F)c(Cl)c1 [Example 38, (3-Chloro-4-fluoro-phenyl)-(3-isopropyl-3H-imidazol-4-yl)-methanone]
0.0116 µM | 0.368 µM | Cn1cncc1C(=O)c1ccc(C#N)cc1 [Example 2, 4-(3-Methyl-3H-imidazole-4-carbonyl)-benzonitrile]
0.335 µM | 3.44 µM | CCn1cncc1C(=O)c1ccc(F)c(C#N)c1 [Example 63, 5-(3-Ethyl-3H-imidazole-4-carbonyl)-2-fluoro-benzonitrile]
0.004 µM | 0.0843 µM | CCn1cncc1C(=O)c1ccc(SC)c(OC)c1 [Example 60, (3-Ethyl-3H-imidazol-4-yl)-(3-methoxy-4-methylsulfanyl-phenyl)-methanone]
0.0159 µM | 0.199 µM | COc1cc(C(=O)c2cncn2C(C)C)ccc1SC(F)(F)F [Example 81, (3-Isopropyl-3H-imidazol-4-yl)-(3-methoxy-4-trifluoromethylsulfanyl-phenyl)-methanone]
0.0044 µM | 0.0659 µM | CCn1cncc1C(=O)c1ccc(Cl)cc1 [Example 7, (4-Chloro-phenyl)-(3-ethyl-3H-imidazol-4-yl)-methanone]
